Experimental data reported in patent US7649008B2, “Crystal of benzimidazole derivative and process for producing the same” (priority 2003, dated 2010).
“Also recorded” adds a separate entry of the source.

Tests used:
[1] = Absorptivity of the crystal forms; settings: qualitative
[2] = Storage stability of the crystal forms; assay type: physicochemical; settings: qualitative
[3] = Relative stability of the crystal forms; assay type: physicochemical; settings: four kinds of crystals excluding the solvate
[4] = Solubility of the crystal forms in the solvent; assay type: physicochemical; settings: qualitative, solvent not given

Row | SMILES | absorptivity [1] | storage stability [2] | stability (rank order of crystal forms) [3] | solubility in the solvent [4] | solubility in the solvent ([4]; hydrate)
1 | Cc1cccc2scc(Cn3c(SCCCC(=O)O)nc4ccccc43)c12 [crystal A, 4-(1-((4-methylbenzothiophen-3-yl)methyl)benzimidazol-2-ylthio)butanoic acid] | comparatively excellent | excellent | becomes lower in the order of crystal D, crystal B, crystal A and crystal E | becomes higher in this order; also recorded: excellent | 
2 | Cc1cccc2scc(Cn3c(SCCCC(=O)O)nc4ccccc43)c12 [hydrate crystal, 4-(1-((4-methylbenzothiophen-3-yl)methyl)benzimidazol-2-ylthio)butanoic acid hydrate] | comparatively excellent | excellent |  |  | excellent
3 | Cc1cccc2scc(Cn3c(SCCCC(=O)O)nc4ccccc43)c12 [crystal B, 4-(1-((4-methylbenzothiophen-3-yl)methyl)benzimidazol-2-ylthio)butanoic acid] |  | excellent | becomes lower in the order of crystal D, crystal B, crystal A and crystal E | becomes higher in this order | 
4 | Cc1cccc2scc(Cn3c(SCCCC(=O)O)nc4ccccc43)c12 [crystal E, 4-(1-((4-methylbenzothiophen-3-yl)methyl)benzimidazol-2-ylthio)butanoic acid] | comparatively excellent | excellent | becomes lower in the order of crystal D, crystal B, crystal A and crystal E | becomes higher in this order; also recorded: excellent | 
5 | Cc1cccc2scc(Cn3c(SCCCC(=O)O)nc4ccccc43)c12 [crystal D, 4-(1-((4-methylbenzothiophen-3-yl)methyl)benzimidazol-2-ylthio)butanoic acid] |  | excellent | becomes lower in the order of crystal D, crystal B, crystal A and crystal E | becomes higher in this order; also recorded: drastically poor | 
